Assay results from patent US10953028B2, “Method of treating heterotopic ossification” (THE REGENTS OF THE UNIVERSITY OF MICHIGAN, priority 2015, dated 2021).
Where “and” joins values, the source holds several entries; their conditions need not be identical. Equal values may be shown once.

What was measured:
burn/tenotomy mice = experiment: Burn/tenotomy trauma-induced HO model (microCT, histology, immunostaining); type: in vivo, mouse; settings: 9 weeks
[1] = system: caACVR1fl/fl mice injected with cardiotoxin and Ad.cre; settings: mouse, in vivo

For `CO[C@H]1C[C@@H]2CC[C@@H](C)[C@@](O)(O2)C(=O)C(=O)N2CCCC[C@H]2C(=O)O[C@H]([C@H](C)C[C@@H]2CC[C@@H](O)[C@H](OC)C2)CC(=O)[C@H](C)/C=C(\C)[C@@H](O)[C@@H](OC)C(=O)[C@H](C)C[C@H](C)/C=C/C=C/C=C/1C` [rapamycin], the “de novo (soft tissue) HO volume” value (burn/tenotomy mice; rapamycin 5 mg/kg i.p. every other day, control 1.60 mm^3) was 0.81 mm^3, the “de novo (soft tissue) HO normalized volume” value (burn/tenotomy mice; rapamycin 5 mg/kg i.p., control = 1.0) was 0.51 and the “total HO normalized volume” value [1] was 0.0. For the same molecule, the “total HO volume” value [1] was 0.00 mm^3 and 0.0 mm^3.
